The IC50 is the concentration that inhibits the measured activity by half. A word on the half-life: it is how long it takes for the measured level to halve.

The results in this text go back to patent US9085584B2, “Substituted pyrido[3,2-E][1,2,4]-triazolo[4,3-A]pyrazines for the treatment of central nervous system disorders” (Boehringer Ingelheim International GmbH, priority 2012, dated 2015).

For data set [1], the target named is PDE 2A (Homo sapiens (Human), UniProt O00408). In words: PDE 2A assay with fluorescent substrate (IMAP, fluorescence polarization). In kind it is biochemical. The settings on record: read-out: PDE2 IC50. (In general: Fluorescence polarisation rises when a labelled molecule tumbles more slowly, as on binding a larger partner.)
Experimental: (§1) Another, non radioactive, in-vitro assay was performed as follows • c) Phosphodiesterase (PDE) 2A and 10 Assay with Fluorescent Substrate Assay Principle:
(§2) The PDE reaction cleaves cAMP to AMP. The IMAP system (Molecular Device) using fluorescence polarization (FP) as detection principle was used to measure enzyme activity. A fluorescent labeled cAMP was used as substrate for the reaction, generating a labeled AMP. The fluorescent AMP binds specifically to the large M(III)-based nano-particles which reduces the rotational speed of the substrate and thus increases its polarization.
(§3) The inhibition of PDE 2A or 10 enzyme activity was assessed using IMAP-Phosphodiesterase-cAMP fluorescence labeled substrate (Molecular Devices, Order No. R7506), IMAP TR-FRET screening express (Molecular Devices, Order No. R8160, the TR-FRET component will not be used) and PDE 2A or PDE10 protein expressed upon baculovirus infection in SF9 cells.
(§4) All reactions were performed in 384 well plates, Perkin Elmer black optiplates and IMAP reaction buffer with 0.1% Tween20 (kit component)
(§5) Compounds were serial diluted in DMSO. With an intermediate dilution step with reaction buffer DMSO concentration was reduced to achieve 1% DMSO in the assay reaction. Setup of the assay started with 10 μl enzyme (˜10 ng/well, depending on prep. batch), 5 μl compound, reaction was started by addition of 5 μl labeled cAMP (30 nM, final concentration), immediately mixed for 15 seconds on a Eppendorf mixmate (2000 rpm) followed by an incubation at room temperature for 90 minutes in the dark. Reaction is stopped by adding of 60 μl binding buffer for FP/cAMP (kit component).
(§6) Each assay plate contained wells with vehicle controls (1% DMSO) for the measurement of non-inhibited reaction (=100% control) and wells without enzyme as 0% controls.
For data set [2], the target named is PDE10 (Homo sapiens (Human), UniProt Q9Y233). Kind of data set: PDE10 assay with fluorescent substrate (IMAP, fluorescence polarization). Format: biochemical.
Experimental: as §1, §2, §3, §4, §5, §6
Data set [3] in a line: Metabolic stability in pooled liver microsomes. In kind it is in vitro ADME, human. The conditions noted are these: 1 μM test compound, 37° C.; for half-life at 1 μM: human, pooled liver microsomes, pH 7.6, human liver microsomes, read-out: Half-life - t½; for Half-life - t½: human liver microsomes. As for the experimental part: The metabolic stability of the compounds according to the invention has been investigated as follows:
The metabolic degradation of the test compound was assayed at 37° C. with pooled liver microsomes from various species. The final incubation volume of 100 μl per time point contains TRIS buffer pH 7.6 at room temperature (0.1 M), magnesium chloride (5 mM), microsomal protein (1 mg/mL for human and dog, 0.5 mg/mL for other species) and the test compound at a final concentration of 1 μM. Following a short preincubation period at 37° C., the reactions were initiated by addition of betanicotinamide adenine dinucleotide phosphate, reduced form (NADPH, 1 mM), and terminated by transferring an aliquot into solvent after different time points. […] The half-life was determined by the slope of the semi-logarithmic plot of the concentration-time profile.
For orientation: Liver microsomes are a subcellular fraction often used to study metabolism.

Data set [4] in a line: Animal experiments and sample analysis: plasma, brain and CSF concentration. The conditions noted are these: rat, 2 h between administration and CSF sampling. In kind it is in vivo.
Experimental: In-vivo Effect: Animal Experiments and Sample Analysis (CSF):
Test compounds were administered to animals (rat) different routes at doses of 10.0 or 5 μmol/kg, (both oral and intravenous). After compound administration, the animals were sacrificed in a CO2 chamber and CSF samples were carefully collected by puncture of the cisterna magna. Immediately after CSF sampling, blood was taken by heart puncture and brains were dissected out. Blood was collected in EDTA-coated microvettes and plasma was prepared by centrifugation. Concentration of the test compounds in plasma, CSF or brain homogenate was determined using HPLC-MS-MS.
In data set [5] the target is hERG channel (Homo sapiens (Human), UniProt Q12809). Kind of data set: hERG-channel assay (whole-cell patch clamp, transfected HEK293 cells). In kind it is cell-based. The conditions noted are these: HEK293 cells stably transfected with hERG cDNA, 35° C. From the text: hERG (Human Ether-à-go-go-Related Gene)-Channel Assay
hERG channel inhibition of compounds of the present invention has been investigated as follows:
HEK (human embryonic kidney) 293 cells were stably transfected with hERG cDNA.
Cells were superfused with a bath solution containing (mM): NaCl (137), KCl (4.0), MgCl2 (1.0), CaCl2 (1.8), Glucose (10), HEPES (10), pH 7.4 with NaOH. Patch pipettes were made from borosilicate glass tubing using a horizontal puller and filled with pipette solution containing (mM): K-aspartate (130), MgCl2 (5.0), EGTA (5.0), K2ATP (4.0), HEPES (10.0), pH 7.2 with KOH. Resistance of the microelectrodes was in the range between 2 and 5 MΩ.
Stimulation and recording:
Membrane currents were recorded using an EPC-10 patch clamp amplifier and PatchMaster software. hERG-mediated membrane currents were recorded at 35° C., using the whole-cell configuration of the patch-clamp technique. […] During each inter-pulse interval 4 pulses scaled down by a factor of 0.2 were recorded for a P/n leak subtraction procedure. […]
The different concentrations of the test compound were applied sequentially on each of the different cells investigated. A steady state level of baseline current was measured for at least 6 sweeps prior to the application of the first test compound concentration. […]
Peak current amplitudes were measured 3 ms after the ramp to +40 mV. […]
For orientation: The hERG channel carries a current that helps repolarise heart muscle cells.

Data set [6] has as its target PDE 10A (Homo sapiens (Human), UniProt Q9Y233). In words: Radioactive PDE10 assay ([3H]cAMP SPA). In kind it is biochemical.
Experimental: Into a 384 well plate (OptiPlate, white), the following components are pipetted (either manually or using automated pipetting devices): • 20 μl test-compound solution (test compound diluted in assay buffer at twofold the desired concentration) • +10 μl PDE 10A preparation (enzyme diluted in assay buffer to a concentration of 0.3 ng/μl protein) • +10 μl cAMP tracer (diluted in assay buffer to a concentration of 80 nM cAMP, specific activity ˜4 mCi/I)
After addition of all 3 components the plates are shortly spun and incubated at room temperature for 60 min. The reaction is stopped by the addition of 20 μl Yttrium SPA PDE Beads containing 18 mM zinc sulphate in water
PDE 10A protein is expressed upon baculovirus infection in SF9 cells. The cells have been incubated upon infection for ˜3 days and protein production was confirmed by Western Blot. The cells were collected by centrifugation and the pellet frozen in liquid nitrogen before it was resuspended in PBS containing 1% Triton X-100 and protease inhibitors. After 45 min incubation on ice, the cell debris was removed by centrifugation (13.000 rpm, 30 min).

A value given as a limit tells only on which side of the number the result lay.

PDE10, sequence (Q9Y233 whole entry, species assumed): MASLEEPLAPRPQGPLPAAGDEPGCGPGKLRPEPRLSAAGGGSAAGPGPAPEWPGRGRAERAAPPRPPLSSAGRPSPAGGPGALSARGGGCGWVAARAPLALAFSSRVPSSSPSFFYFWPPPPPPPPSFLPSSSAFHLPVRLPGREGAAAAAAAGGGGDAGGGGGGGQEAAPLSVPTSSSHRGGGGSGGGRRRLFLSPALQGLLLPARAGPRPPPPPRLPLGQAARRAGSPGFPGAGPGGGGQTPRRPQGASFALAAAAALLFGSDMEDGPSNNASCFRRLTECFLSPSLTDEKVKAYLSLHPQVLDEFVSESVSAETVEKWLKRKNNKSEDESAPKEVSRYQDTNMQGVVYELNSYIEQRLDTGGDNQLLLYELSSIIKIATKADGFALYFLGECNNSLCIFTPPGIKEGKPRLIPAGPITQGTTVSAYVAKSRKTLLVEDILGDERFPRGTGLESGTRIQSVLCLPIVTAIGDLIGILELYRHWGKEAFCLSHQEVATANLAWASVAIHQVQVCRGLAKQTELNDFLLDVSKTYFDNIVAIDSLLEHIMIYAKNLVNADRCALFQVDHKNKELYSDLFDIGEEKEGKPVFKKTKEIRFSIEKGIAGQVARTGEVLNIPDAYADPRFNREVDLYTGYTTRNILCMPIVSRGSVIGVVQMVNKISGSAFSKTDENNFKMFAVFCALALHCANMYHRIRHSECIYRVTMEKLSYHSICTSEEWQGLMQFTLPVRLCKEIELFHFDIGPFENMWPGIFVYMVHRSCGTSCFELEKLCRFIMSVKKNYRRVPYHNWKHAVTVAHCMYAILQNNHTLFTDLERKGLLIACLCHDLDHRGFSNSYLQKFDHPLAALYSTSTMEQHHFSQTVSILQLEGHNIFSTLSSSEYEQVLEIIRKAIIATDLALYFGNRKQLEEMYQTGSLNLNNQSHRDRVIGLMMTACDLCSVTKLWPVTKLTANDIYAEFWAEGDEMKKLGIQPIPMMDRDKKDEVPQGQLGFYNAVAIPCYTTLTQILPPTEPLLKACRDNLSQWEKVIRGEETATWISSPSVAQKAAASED
PDE 2A, sequence (O00408 whole entry, species assumed): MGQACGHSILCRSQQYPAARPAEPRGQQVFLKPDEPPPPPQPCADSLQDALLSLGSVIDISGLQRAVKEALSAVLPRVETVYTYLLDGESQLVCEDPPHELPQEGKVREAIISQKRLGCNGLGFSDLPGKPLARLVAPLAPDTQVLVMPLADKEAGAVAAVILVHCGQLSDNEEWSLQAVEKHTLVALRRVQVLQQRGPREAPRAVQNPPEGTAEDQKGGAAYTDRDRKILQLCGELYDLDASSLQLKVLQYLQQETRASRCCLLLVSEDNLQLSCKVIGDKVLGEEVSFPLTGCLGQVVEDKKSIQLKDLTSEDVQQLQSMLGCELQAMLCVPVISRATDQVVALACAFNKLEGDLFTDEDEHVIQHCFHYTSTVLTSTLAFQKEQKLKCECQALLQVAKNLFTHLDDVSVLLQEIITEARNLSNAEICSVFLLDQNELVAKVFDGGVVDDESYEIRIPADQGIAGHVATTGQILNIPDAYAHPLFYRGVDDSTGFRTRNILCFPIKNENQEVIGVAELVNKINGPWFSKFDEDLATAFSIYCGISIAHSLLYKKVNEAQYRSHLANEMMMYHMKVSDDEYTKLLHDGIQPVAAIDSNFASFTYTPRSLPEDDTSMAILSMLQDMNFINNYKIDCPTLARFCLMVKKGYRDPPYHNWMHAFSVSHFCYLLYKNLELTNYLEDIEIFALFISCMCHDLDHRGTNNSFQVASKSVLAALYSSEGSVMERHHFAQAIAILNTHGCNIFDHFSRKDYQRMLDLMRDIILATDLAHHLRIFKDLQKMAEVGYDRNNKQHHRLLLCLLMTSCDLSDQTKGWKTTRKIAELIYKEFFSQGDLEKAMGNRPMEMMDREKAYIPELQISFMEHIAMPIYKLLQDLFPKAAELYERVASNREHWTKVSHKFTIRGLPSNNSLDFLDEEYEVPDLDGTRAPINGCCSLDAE
hERG channel, sequence (Q12809 whole entry): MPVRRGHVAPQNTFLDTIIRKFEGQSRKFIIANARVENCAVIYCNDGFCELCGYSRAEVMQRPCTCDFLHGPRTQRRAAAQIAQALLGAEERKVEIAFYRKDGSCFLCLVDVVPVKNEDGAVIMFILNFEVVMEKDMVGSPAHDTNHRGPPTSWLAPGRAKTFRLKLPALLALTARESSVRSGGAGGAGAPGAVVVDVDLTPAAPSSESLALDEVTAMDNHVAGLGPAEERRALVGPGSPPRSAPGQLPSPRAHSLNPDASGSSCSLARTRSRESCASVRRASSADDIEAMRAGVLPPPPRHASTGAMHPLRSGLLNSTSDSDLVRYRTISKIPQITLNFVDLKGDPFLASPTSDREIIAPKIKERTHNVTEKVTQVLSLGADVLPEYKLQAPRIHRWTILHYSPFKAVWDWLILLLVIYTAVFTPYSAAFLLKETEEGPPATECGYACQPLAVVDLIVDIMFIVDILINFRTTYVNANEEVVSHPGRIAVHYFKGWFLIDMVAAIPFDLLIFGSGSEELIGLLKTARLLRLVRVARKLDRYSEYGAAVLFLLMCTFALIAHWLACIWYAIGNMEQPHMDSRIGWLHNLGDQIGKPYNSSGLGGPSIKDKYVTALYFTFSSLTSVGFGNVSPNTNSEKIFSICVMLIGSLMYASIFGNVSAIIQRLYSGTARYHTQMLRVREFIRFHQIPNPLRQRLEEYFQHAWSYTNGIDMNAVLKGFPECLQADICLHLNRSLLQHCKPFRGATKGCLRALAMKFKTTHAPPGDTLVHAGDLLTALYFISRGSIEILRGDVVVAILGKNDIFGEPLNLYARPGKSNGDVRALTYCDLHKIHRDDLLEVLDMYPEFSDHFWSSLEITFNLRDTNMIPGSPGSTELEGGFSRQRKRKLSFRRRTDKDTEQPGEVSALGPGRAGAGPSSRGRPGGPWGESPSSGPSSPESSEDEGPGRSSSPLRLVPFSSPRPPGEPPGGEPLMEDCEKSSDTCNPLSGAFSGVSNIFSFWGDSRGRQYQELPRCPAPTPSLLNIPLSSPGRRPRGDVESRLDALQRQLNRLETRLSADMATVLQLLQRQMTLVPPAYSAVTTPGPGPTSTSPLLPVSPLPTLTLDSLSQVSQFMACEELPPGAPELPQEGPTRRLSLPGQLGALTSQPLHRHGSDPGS
PDE 10A, sequence (Q9Y233 whole entry, species assumed): as the sequence (Q9Y233 whole entry, species assumed) above

`Cc1nc2ccc(C(F)(F)F)nc2n2c(-c3cc(C4(O)CCCOC4)ccc3Cl)nnc12` (single isomer, unassigned) [Example 114b]: the half-maximal inhibitory concentration (IC50) in data set [1] was determined as 11 nM; in data set [2], 10000 nM.

As for `Cc1nc2ccc(C(F)(F)F)nc2n2c(-c3cc(OC4COCC4O)ccc3Cl)nnc12` (racemic) [Example 111], the figures for the IC50 in data set [1] and in data set [2] were 22 nM and 3980 nM, respectively.

Take `Cc1nc2cccnc2n2c(-c3cc(C4(O)CCCOC4)ccc3Cl)nnc12` (single isomer, unassigned) [Example 112a]: the half-maximal inhibitory concentration (IC50) in data set [1] is 25 nM; in data set [2], 2600 nM.

In turn, `Cc1nc2ccc(C3CC3)nc2n2c(-c3cc(C4(O)CCOC4)ccc3Cl)nnc12` (racemic) [Example 97] gave an IC50 in data set [2] of 2140 nM. In addition, the half-life at 1 μM in data set [3] came to 0.85 h.

As for `Cc1nc2ccc(C(F)(F)F)nc2n2c(-c3cc(OC4COCC4O)ccc3F)nnc12` (racemic) [Example 106], the results for the half-inhibitory concentration (IC50) in data set [1] and in data set [2] were 160 nM and 1940 nM, respectively.

For the compound `Cc1nc2ccc(C(F)(F)F)nc2n2c(-c3cc(OC4COCC4O)ccc3Cl)nnc12` (single isomer, unassigned) [Example 111b], the IC50 in data set [1] was determined as 11 nM; in data set [2], 2130 nM.

Take `Cc1ccc2nc(C)c3nnc(-c4cc(CO)ccc4Cl)n3c2n1` [Example 60]: the half-maximal inhibitory concentration (IC50) in data set [1] came to 19 nM.

For `Cc1nc2ccc(C(F)(F)F)nc2n2c(-c3cc(C4(O)CCOC4)ccc3Cl)nnc12` (single isomer, unassigned) [Example 115a], the IC50 in data set [1] worked out at 82 nM.

For `Cc1ccc(C2(O)CCC2)cc1-c1nnc2c(C)nc3cccnc3n12` [Example 73], in data set [2], the midpoint of inhibition, the IC50, lay at 10000 nM. The “Half-life - t½” value in data set [3] was found to be 2.17 h.

With `Cc1ccc(C(C)(C)O)cc1-c1nnc2c(C)nc3ccc(C4CC4)nc3n12` [Example 75], in data set [4], the “conc CSF” value was determined as 31 nM, the conc brain amounted to 383 nM and the conc plasma was 1130 nM. For the same compound, the “Half-life - t½” value in data set [3] was 2.17 h.

As for `Cc1nc2cccnc2n2c(-c3cc(C4(O)CCCOC4)ccc3Cl)nnc12` (single isomer, unassigned) [Example 112b], the 50% inhibitory concentration (IC50) in data set [1] is 68 nM; in data set [2], 2500 nM.

On to `Cc1nc2cccnc2n2c(-c3cc(OC4COCC4O)ccc3Cl)nnc12` (racemic) [Example 55], for which the concentration for half-maximal inhibition (IC50) turned out to be 80 nM in data set [1] and 5300 nM in data set [2]. Moreover, the “Half-life - t½” value in data set [3] came to 2.17 h.

For `Cc1nc2ccc(C(F)(F)F)nc2n2c(-c3cc(OC4COCC4O)ccc3Cl)nnc12` (single isomer, unassigned) [Example 111a], the IC50 in data set [1] was determined as 65 nM; in data set [2], 1830 nM.

In the case of `Cc1nc2cccnc2n2c(-c3cc(C4(O)CCCOC4)ccc3Cl)nnc12` (racemic) [Example 112], the half-maximal inhibitory concentration (IC50) in data set [1] came to 18 nM; in data set [2], 7000 nM.

On to `Cc1nc2ccc(C(F)(F)F)nc2n2c(-c3cc(C4(O)CCCOC4)ccc3Cl)nnc12` (single isomer, unassigned) [Example 114a], for which, in data set [1], the IC50 was 9 nM.

Take `Cc1nc2ccc(C3CC3)nc2n2c(-c3cc(OC[C@H](C)O)ccc3Cl)nnc12` [Example 35a]: the “Half-life - t½” value in data set [3] was 2.17 h. Besides, the IC50 in data set [5] is over 10000 nM.

As to `Cc1nc2ccc(C(F)(F)F)nc2n2c(-c3cc(C4(O)CCOC4)ccc3Cl)nnc12` (racemic) [Example 115], the IC50 in data set [1] amounted to 39 nM.

As for `Cc1ccc(C2(O)CCOCC2)cc1-c1nnc2c(C)nc3ccc(C(F)(F)F)nc3n12` [Example 96b], the IC50 in data set [2] was determined as 10000 nM.

Regarding `Cc1nc2ccc(C3CC3)nc2n2c(-c3cc(OC4COCC4O)ccc3F)nnc12` (racemic) [Example 107], the IC50 in data set [1] was 7 nM; in data set [2], 22 nM.

On to `Cc1nc2ccc(C3CC3)nc2n2c(-c3cc(C4(O)CCCOC4)ccc3Cl)nnc12` (stereo not shown) [Example 113], for which the IC50 worked out at 0.2 nM in data set [1] and 3190 nM in data set [2].

`Cc1nc2ccc(C(F)(F)F)nc2n2c(-c3cc(C(C)(C)O)ccc3Cl)nnc12` [Example 103b] gave a half-inhibitory concentration (IC50) in data set [2] of 10000 nM.

For `Cc1nc2cccnc2n2c(-c3cc(OCCO)ccc3Cl)nnc12` [Example 15], in data set [6], the IC50 was over 10000 nM.

`Cc1nc2ccc(C(F)(F)F)nc2n2c(-c3cc(C4(O)CCOCC4)ccc3Cl)nnc12` [Example 96]: the half-life at 1 μM in data set [3] was determined as 1.83 h.

Consider `Cc1nc2ccc(C(F)(F)F)nc2n2c(-c3cc(C4(O)CCCOC4)ccc3Cl)nnc12` (racemic) [Example 114], for which the concentration for half-maximal inhibition (IC50) in data set [1] stood at 22 nM.

On to `Cc1ccc(CCC(C)(C)O)cc1-c1nnc2c(C)nc3ccc(C4CC4)nc3n12` [Example 68], for which the half-life at 1 μM in data set [3] was determined as 0.65 h.

In the case of `Cc1nc2ccc(C(F)(F)F)nc2n2c(-c3cc(C4(O)CCOC4)ccc3Cl)nnc12` (single isomer, unassigned) [Example 115b], the IC50 was 45 nM in data set [1] and 10000 nM in data set [2].

Regarding `Cc1ccc(CCC(C)(C)O)cc1-c1nnc2c(C)nc3cccnc3n12` [Example 67], the “Half-life - t½” value in data set [3] came out at 2.17 h.

Turning to `Cc1ccc2nc(C)c3nnc(-c4cc(C5(O)CCC5)ccc4C)n3c2n1` [Example 102], the “Half-life - t½” value in data set [3] was 2.17 h.

Regarding `Cc1ccc2nc(C)c3nnc(-c4cc(C5(O)CCC5)ccc4Cl)n3c2n1` [Example 89], the “Half-life - t½” value in data set [3] is 2.17 h.

For the compound `Cc1nc2ccc(C3CC3)nc2n2c(-c3cc(O)ccc3F)nnc12` [Example 5], the half-life at 1 μM in data set [3] amounted to 0.717 h.
